The fold induction is the signal under treatment as a multiple of the control signal. Low values mean a weak induction, high ones a strong induction. A word on the IC50: it is the concentration needed to halve the response being measured.

Each structure is given as a SMILES string.

The test system of one test is p15 protein. Briefly: Evaluation of p15 induction activity (Western blotting). Format: cell-based. The settings on record: test substance 0.1 μM, 24 hrs, ACHN cells or HT-29 cells, compared to DMSO, n=2. The procedure: ACHN cells or HT-29 cells were cultured in a 6 well plate at 2.5×10^5 cells/1.8 mL/well for 24 hrs, then a test substance (0.1 μM) dissolved in DMSO was added. After 24 hrs, cells were detached using trypsin-EDTA (ethylene diamine tetraacetic acid) and solubilized with NuPAGE LDS sample buffer (Invitrogen). Using an RC DC protein assay kit (BIO-RAD), the protein concentration of the sample was quantitated, and a sample in an amount corresponding to 10 μg of BSA (bovine serum albumin) was analyzed by Western blotting using an anti-p15 antibody. The density of the band stained with the anti-p15 antibody was measured by a densitometer to quantify the amount of p15 protein. As a control, DMSO was used and the test was performed with n=2 and the average protein amount was determined.
In general terms: Immunoblotting shows a protein as a band on a membrane.
In the case of `Cn1c(=O)cc(Nc2ccc(F)cc2)c2c(=O)n(-c3ccccc3)c(=O)n(-c3ccccc3)c21` [Example 1-8], the fold induction at 0.1 µM is no less than 1.5. The same measure, in the same setting: the same measure for `Cn1c(=O)cc(Nc2ccccc2)c2c(=O)n(-c3ccccc3)c(=O)n(-c3ccccc3)c21` [Example 1-12]: no less than 1.5; for `Cn1c(=O)cc(Nc2ccc3c(c2)OCO3)c2c(=O)n(-c3ccccc3)c(=O)n(-c3ccccc3)c21` [Example 1-16]: no less than 1.5; for `Cn1c(=O)cc(Nc2ccc(Cl)c(Cl)c2)c2c(=O)n(-c3ccccc3)c(=O)n(-c3ccccc3)c21` [Example 1-17]: no less than 1.5.

The subject of another test is colorectal cancer cell line HT-29 cells. Description: Growth inhibitory effect against cancer cell lines (3H-thymidine uptake), HT-29. The format is cell-based. The settings on record: Homo sapiens, HT-29, inhibition of 3H-thymidine uptake; test substance 18 hrs, then 3H-thymidine 6 hrs; triplicate. The method, then: Renal cancer cell line ACHN cell or colorectal cancer cell line HT-29 cells were cultured in a 96 well plate at 1.0×10^4 cells/90 μL/well for 24 hrs, then a test substance dissolved in DMSO (dimethyl sulfoxide) was added. After 18 hrs, ^3H-thymidine (0.25 μCi/well) was added and the cells were cultured for 6 hrs. Using a cell harvester, the cells were recovered on a UniFilter-96 GF/B glass filter and the ^3H radioactivity uptaken by the cells was measured by TopCount (Packard). As a control, DMSO was used and the activity of the test substance was expressed in the concentration (IC50) necessary for inhibiting ^3H radioactivity uptaken by the cell to 50% of that of the control group. The measurements were made in triplicate.
Compound `COc1ccc(Nc2cc(=O)n(C)c3c2c(=O)n(C2CC2)c(=O)n3-c2ccccc2)cc1` [Example 1-129] yielded an IC50 of 0.1 to 1 µM.

In turn, `C=CCn1c(=O)c2c(Nc3ccc(N(C)C)cc3)cc(=O)n(C)c2n(-c2ccccc2)c1=O` [Example 1-140] had an IC50 of 0.1 to 1 µM. Same read-out and setting: the figure for `COc1ccccc1-n1c(=O)n(C2CC2)c(=O)c2c(Nc3ccc(Br)cc3)cc(=O)n(C)c21` [Example 1-159] is 0.1 to 1 µM; for `CCn1c(=O)c2c(Nc3ccc(Br)cc3F)cc(=O)n(C)c2n(-c2ccccc2)c1=O` [Example 1-164] it is 0.01 to 0.1 µM. Regarding `Cn1c(=O)cc(Nc2ccc(Cl)cc2F)c2c(=O)n(C3CC3)c(=O)n(-c3ccccc3)c21` [Example 1-171], the half-inhibitory concentration (IC50) is 0.01 to 0.1 µM. `COc1cc(Br)ccc1Nc1cc(=O)n(C)c2c1c(=O)n(C1CC1)c(=O)n2-c1ccccc1` [Example 1-189] showed a half-maximal inhibitory concentration (IC50) of 0.1 to 1 µM.

Compound `COc1cccc(-n2c(=O)n(C3CC3)c(=O)c3c(Nc4ccc(Br)cc4)cc(=O)n(C)c32)c1` [Example 1-190] came in with an IC50 of 0.1 to 1 µM. Same read-out and setting: the same measure for `Cn1c(=O)cc(Nc2ccc(Br)cc2F)c2c(=O)n(C3CC3)c(=O)n(-c3cccc(CCC(=O)O)c3)c21` [Example 1-201]: 0.1 to 1 µM; for `CN1CCN(c2cccc(-n3c(=O)n(C4CC4)c(=O)c4c(Nc5ccc(Br)cc5F)cc(=O)n(C)c43)c2)CC1` [Example 1-206]: 0.1 to 1 µM; for `COc1ccc(Nc2cc(=O)n(C)c3c2c(=O)n(C2CC2)c(=O)n3-c2ccccc2)c(Br)c1` [Example 1-211]: 0.1 to 1 µM. Same read-out and setting: the figure for `Cn1c(=O)cc(Nc2ccc(Br)cc2F)c2c(=O)n(C3CC3)c(=O)n(-c3cccc(N4CCCCC4=O)c3)c21` [Example 1-214] is 0.01 to 0.1 µM; for `Cn1c(=O)cc(Nc2ccc(Br)cc2F)c2c(=O)n(C3CC3)c(=O)n(-c3cccc(N4CCCC4)c3)c21` [Example 1-215] it is 0.1 to 1 µM. The same measure, in the same setting: the same measure for `Cn1c(=O)cc(Nc2ccc(Br)cc2F)c2c(=O)n(C3CC3)c(=O)n(-c3cccc(N4CCCCC4)c3)c21` [Example 1-216]: 0.1 to 1 µM.

As to `CCN(C)c1ccc(Nc2cc(=O)n(C)c3c2c(=O)n(C2CC2)c(=O)n3-c2ccccc2)c(F)c1` [Example 1-217], the IC50 fell in the range of 0.1 to 1 µM. On the same count and under the same terms, the same measure for `Cn1c(=O)cc(Nc2ccc(Br)cc2F)c2c(=O)n(C3CC3)c(=O)n(-c3ccc(S(C)(=O)=O)cc3)c21` [Example 1-225]: 0.1 to 1 µM; for `CN(C)CCCOc1cccc(-n2c(=O)n(C3CC3)c(=O)c3c(Nc4ccc(Br)cc4F)cc(=O)n(C)c32)c1` [Example 1-227]: 0.01 to 0.1 µM.

In turn, `CC(C)c1ccc(Nc2cc(=O)n(C)c3c2c(=O)n(C2CC2)c(=O)n3-c2ccccc2)cc1` [Example 1-229] had an IC50 of 0.1 to 1 µM. Same read-out and setting: the same measure for `CCc1ccc(Nc2cc(=O)n(C)c3c2c(=O)n(C2CC2)c(=O)n3-c2ccccc2)cc1` [Example 1-230]: 0.1 to 1 µM. `Cn1c(=O)cc(Nc2ccc(Br)cc2F)c2c(=O)n(C3CC3)c(=O)n(-c3cccc(OCCN4CCCC4)c3)c21` [Example 1-233]: the IC50 was in the range of 0.1 to 1 µM. On to `Cn1c(=O)cc(Nc2ccc(Br)cc2F)c2c(=O)n(C3CC3)c(=O)n(-c3cccc(OCCN4CCCCC4)c3)c21` [Example 1-234], for which the IC50 was 0.1 to 1 µM. The same measure, in the same setting: the figure for `CCN(CC)CCOc1cccc(-n2c(=O)n(C3CC3)c(=O)c3c(Nc4ccc(Br)cc4F)cc(=O)n(C)c32)c1` [Example 1-235] is 0.1 to 1 µM; for `CN1CCN(CCCOc2cccc(-n3c(=O)n(C4CC4)c(=O)c4c(Nc5ccc(Br)cc5F)cc(=O)n(C)c43)c2)CC1` [Example 1-236] it is 0.1 to 1 µM. The same measure, in the same setting: the figure for `CCn1c(=O)c2c(Nc3ccc(Br)cc3F)cc(=O)n(C)c2n(-c2cccnc2)c1=O` [Example 1-244] is 0.1 to 1 µM; for `CN(C)CCCc1cccc(-n2c(=O)n(C3CC3)c(=O)c3c(Nc4ccc(Br)cc4F)cc(=O)n(C)c32)c1` [Example 1-252] it is 0.01 to 0.1 µM. On the same count and under the same terms, the same measure for `Cn1c(=O)cc(Nc2ccc(Br)cc2F)c2c(=O)n(C3CC3)c(=O)n(-c3cccc(CCCN4CCCCC4)c3)c21` [Example 1-255]: 0.1 to 1 µM; for `CCCc1ccc(Nc2cc(=O)n(C)c3c2c(=O)n(C2CC2)c(=O)n3-c2ccccc2)c(F)c1` [Example 1-258]: 0.1 to 1 µM. `Cn1c(=O)cc(Nc2ccc(C(F)(F)F)cc2)c2c(=O)n(C3CC3)c(=O)n(-c3ccccc3)c21` [Example 1-273] returned an IC50 of 0.1 to 1 µM. On the same count and under the same terms, the figure for `CN(C)CC(=O)Nc1cccc(-n2c(=O)n(C3CC3)c(=O)c3c(Nc4ccc(Br)cc4F)cc(=O)n(C)c32)c1` [Example 1-277] is 0.01 to 0.1 µM. In turn, `Cn1c(=O)cc(Nc2ccc(Br)cc2F)c2c(=O)n(C3CC3)c(=O)n(-c3cccc(S(N)(=O)=O)c3)c21` [Example 1-288] showed a concentration for half-maximal inhibition (IC50) of 0.01 to 0.1 µM.

Consider `CNC(=O)c1cccc(-n2c(=O)n(C3CC3)c(=O)c3c(Nc4ccc(Br)cc4F)cc(=O)n(C)c32)c1` [Example 1-292], for which the IC50 is 0.01 to 0.1 µM. The same measure, in the same setting: the figure for `Cn1c(=O)cc(Nc2ccc(Br)cc2F)c2c(=O)n(C3CC3)c(=O)n(-c3cccc(NC(=O)CCO)c3)c21` [Example 1-305] is 0.01 to 0.1 µM; for `Cn1c(=O)cc(Nc2ccc(Br)cc2F)c2c(=O)n(C3CC3)c(=O)n(-c3cccc(NS(=O)(=O)CCN)c3)c21` [Example 1-313] it is 0.01 to 0.1 µM. The compound `CN(C)C(=O)Nc1cccc(-n2c(=O)n(C3CC3)c(=O)c3c(Nc4ccc(Br)cc4F)cc(=O)n(C)c32)c1` [Example 1-324] had an IC50 of 0.01 to 0.1 µM. `Cn1c(=O)cc(Nc2ccc(CC(F)F)cc2)c2c(=O)n(C3CC3)c(=O)n(-c3ccccc3)c21` [Example 1-326] showed an IC50 of 0.1 to 1 µM.

Compound `Cn1c(=O)cc(Nc2ccc(Br)cc2F)c2c(=O)n(C3CC3)c(=O)n(-c3cccc(NCCN)c3)c21` [Example 1-334] registered an IC50 of 0.1 to 1 µM. Still for that read-out and setting: the same measure for `CC(=O)Nc1ccc(-n2c(=O)n(C3CC3)c(=O)c3c(Nc4ccc(Br)cc4F)n(C)c(=O)c(C)c32)cc1` [Example 4-4]: 0.1 to 1 µM; for `CC(=O)Nc1cccc(-n2c(=O)n(C3CC3)c(=O)c3c(Nc4ccccc4F)n(C)c(=O)c(C)c32)c1` [Example 4-7]: 0.1 to 1 µM; for `CCCCC(=O)NCCC(=O)Nc1cccc(-n2c(=O)n(C3CC3)c(=O)c3c(Nc4ccccc4F)n(C)c(=O)c(C)c32)c1` [Example 4-13]: 0.1 to 1 µM. Same read-out and setting: the same measure for `CC(=O)Nc1cccc(-n2c(=O)n(C3CC3)c(=O)c3c(Nc4ccc(C5CCCC5)cc4F)n(C)c(=O)c(C)c32)c1` [Example 4-57]: 0.1 to 1 µM. On the same count and under the same terms, the same measure for `COc1ccc(-n2c(=O)n(C3CC3)c(=O)c3c(Nc4ccc(I)cc4F)n(C)c(=O)c(C)c32)cc1NC(C)=O` [Example 4-63]: 0.01 to 0.1 µM; for `CCc1ccc(Nc2c3c(=O)n(C4CC4)c(=O)n(-c4ccc(NC(C)=O)cc4)c3c(C)c(=O)n2C)c(F)c1` [Example 4-75]: 0.01 to 0.1 µM; for `Cc1c(=O)n(C)c(Nc2ccc(Br)cc2)c2c(=O)n(CCO)c(=O)n(-c3ccccc3)c12` [Example 4-85]: 0.1 to 1 µM.

`CC(=O)N(c1cccc(-n2c(=O)n(C3CC3)c(=O)c3c(Nc4ccc(I)cc4F)n(C)c(=O)c(C)c32)c1)S(C)(=O)=O` [Example 4-133] gave an IC50 of 0.1 to 1 µM. The same measure, in the same setting: the figure for `CC(=O)Nc1cccc(-n2c(=O)n(CCCO)c(=O)c3c(Nc4ccc(I)cc4F)n(C)c(=O)c(C)c32)c1` [Example 4-135] is 0.1 to 1 µM; for `CC(=O)N(c1cccc(-n2c(=O)n(C3CC3)c(=O)c3c(Nc4ccc(I)cc4F)n(C)c(=O)c(C)c32)c1)S(=O)(=O)N(C)C` [Example 4-138] it is 0.1 to 1 µM; for `CC(=O)N(C(C)=O)c1cccc(-n2c(=O)n(C3CC3)c(=O)c3c(Nc4ccc(I)cc4F)n(C)c(=O)c(C)c32)c1` [Example 4-140] it is 0.1 to 1 µM. As to `Cc1c(=O)n(C)c(Nc2ccc(I)cc2F)c2c(=O)n(CCCO)c(=O)n(-c3cccc(NS(C)(=O)=O)c3)c12` [Example 4-145], the IC50 lay in the range of 0.1 to 1 µM. On the same count and under the same terms, the same measure for `Cc1c(=O)n(C)c(Nc2ccc(I)cc2F)c2c(=O)n(CCCO)c(=O)n(-c3ccc4oc(=O)[nH]c4c3)c12` [Example 4-146]: 0.1 to 1 µM. `Cc1c(=O)n(C)c(Nc2ccc(I)cc2F)c2c(=O)n(CCCO)c(=O)n(-c3ccccc3)c12` [Example 4-147] came in with an IC50 of 0.1 to 1 µM. As for `Cc1c(=O)n(C)c(Nc2ccc(I)cc2F)c2c(=O)n(CCCO)c(=O)n(-c3cccc(NC(=O)CO)c3)c12` [Example 4-148], the IC50 fell in the range of 0.1 to 1 µM.

The record behind these values is patent publication US20180273531A1, “PYRIMIDINE COMPOUND AND MEDICAL USE THEREOF” (Japan Tobacco Inc., priority 2004, published 2018).
